# Results as given in patent publication US20240109903A1, “SUBSTITUTED HETEROCYCLES FOR TREATING CANCER” (Northwestern University, priority 2022, published 2024).
# Experiments:
# HT29 = assay: NCI 60 five-dose screen HT29; type: cell-based; conditions: Homo sapiens, HT-29, five-dose
# HCC-2998 = assay: NCI 60 five-dose screen HCC-2998; type: cell-based; conditions: Homo sapiens, five-dose
# NCI-H322M = assay: NCI 60 five-dose screen NCI-H322M; type: cell-based; conditions: Homo sapiens, five-dose
# A498 = assay: NCI 60 five-dose screen A498; type: cell-based; conditions: Homo sapiens, five-dose
# KM12 = assay: NCI 60 five-dose screen KM12; type: cell-based; conditions: Homo sapiens, five-dose
# CAKI-1 = assay: NCI 60 five-dose screen CAKI-1; type: cell-based; conditions: Homo sapiens, five-dose
# CCRF-CEM = assay: NCI 60 five-dose screen CCRF-CEM; type: cell-based; conditions: Homo sapiens, five-dose
# M14 = assay: NCI 60 five-dose screen M14; type: cell-based; conditions: Homo sapiens, five-dose
# IGROV1 = assay: NCI 60 five-dose screen IGROV1; type: cell-based; conditions: Homo sapiens, IGROV-1, five-dose
# U251 = assay: NCI 60 five-dose screen U251; type: cell-based; conditions: Homo sapiens, U-251, five-dose
# UACC-62 = assay: NCI 60 five-dose screen UACC-62; type: cell-based; conditions: Homo sapiens, five-dose
# UACC-257 = assay: NCI 60 five-dose screen UACC-257; type: cell-based; conditions: Homo sapiens, five-dose
# SR = assay: NCI 60 five-dose screen SR; type: cell-based, human; conditions: Homo sapiens, five-dose
# HOP-92 = assay: NCI 60 five-dose screen HOP-92; type: cell-based; conditions: Homo sapiens, five-dose
# NCI-H522 = assay: NCI 60 five-dose screen NCI-H522; type: cell-based; conditions: Homo sapiens, five-dose
# full NCI 60 cell panel = assay: NCI 60 Cell One-dose screen; type: cell-based, human; conditions: single high dose 10^−5 M, NCI 60 panel
# Text: Compounds were submitted to the NCI 60 Cell screen and tested at a single high dose (10^−5 M) in the full NCI 60 cell panel (see the following reference for details of using NCI 60 human tumor cell lines for screening anticancer drugs: Shoemaker R H. The NCI60 human tumor cell line anticancer drug screen. Nature Rev Cancer 2006; 6: 813-23). The One-dose data is reported as a mean graph of the percent growth of treated cells. The number reported for the One-dose assay is growth relative to the no-drug control, and relative to the time zero number of cells. This allows detection of both growth inhibition (values between 0 and 100) and lethality (values less than 0). For example, a value of 100 means no growth inhibition. A value of 40 would mean 60% growth inhibition. A value of 0 means no net growth over the course of the experiment. A value of −40 would mean 40% lethality. A value of −100 means all cells are dead. FIGS. 1-8 show the mean graph of percent growth against the NCI-60 cell panel for NUCC-0226674, NUCC-0226679, NUCC-0226680, NUCC-0226683, NUCC-0226689, NUCC-0226694, NUCC-0226695, and NUCC-0226698.
# NCI/ADR-RES = assay: NCI 60 five-dose screen NCI/ADR-RES; type: cell-based; conditions: Homo sapiens, five-dose
# HCT-116 = assay: NCI 60 five-dose screen HCT-116; type: cell-based; conditions: Homo sapiens, five-dose
# HS 578T = assay: NCI 60 five-dose screen HS 578T; type: cell-based; conditions: Homo sapiens, five-dose
# COLO 205 = assay: NCI 60 five-dose screen COLO 205; type: cell-based; conditions: Homo sapiens, five-dose
# ACHN = assay: NCI 60 five-dose screen ACHN; type: cell-based; conditions: Homo sapiens, five-dose
# SF-295 = assay: NCI 60 five-dose screen SF-295; type: cell-based; conditions: Homo sapiens, five-dose
# OVCAR-8 = assay: NCI 60 five-dose screen OVCAR-8; type: cell-based; conditions: Homo sapiens, five-dose
# MCF7 = assay: NCI 60 five-dose screen MCF7; type: cell-based; conditions: Homo sapiens, five-dose
# [1] = read-out: LC50 (the source's name) (converted)
# [2] = read-out: LC50 (the source's name)
compound,measurement,setting,value
FC(F)(F)CN1CCN(CCn2c(C(F)(F)F)cc3c(Cl)ncnc32)CC1 [NUCC-0226683],GI50,HT29,5.5 µM
same,IC50,HT29,7.41 µM
same,IC (TGI),HT29,36.3 µM
same,CC50,HT29; [1],≥ 100 µM
same,GI50,HCC-2998,1820 nM
same,IC50,HCC-2998,3.24 µM
same,IC (TGI),HCC-2998,3.31 µM
same,CC50,HCC-2998; [1],5.89 µM
same,GI50,NCI-H322M,5.5 µM
same,IC50,NCI-H322M,15.8 µM
same,IC (TGI),NCI-H322M,19.1 µM
same,CC50,NCI-H322M; [1],44.7 µM
same,GI50,A498,21.4 µM
same,IC50,A498,100 µM
same,IC (TGI),A498,57.5 µM
same,CC50,A498; [1],≥ 100 µM
same,GI50,KM12,17.8 µM
same,IC50,KM12,30.2 µM
same,IC (TGI),KM12,39.8 µM
same,CC50,KM12; [1],89.1 µM
same,GI50,CAKI-1,13.5 µM
same,IC50,CAKI-1,25.7 µM
same,IC (TGI),CAKI-1,30.9 µM
same,CC50,CAKI-1; [1],69.2 µM
same,GI50,CCRF-CEM,4.37 µM
same,IC50,CCRF-CEM,7.41 µM
same,IC (TGI),CCRF-CEM,100 µM
same,CC50,CCRF-CEM; [2],≥ 100 µM
same,GI50,M14,6.17 µM
same,IC50,M14,12.3 µM
same,IC (TGI),M14,22.9 µM
same,CC50,M14; [1],67.6 µM
same,GI50,IGROV1,1780 nM
same,IC50,IGROV1,3.16 µM
same,IC (TGI),IGROV1,3.55 µM
same,CC50,IGROV1; [1],7.08 µM
same,GI50,U251,2400 nM
same,IC50,U251,3.63 µM
same,IC (TGI),U251,6.46 µM
same,CC50,U251; [1],24 µM
same,GI50,UACC-62,4.68 µM
same,IC50,UACC-62,10 µM
same,IC (TGI),UACC-62,18.2 µM
same,CC50,UACC-62; [1],47.9 µM
same,GI50,UACC-257,4.07 µM
same,IC50,UACC-257,11 µM
same,IC (TGI),UACC-257,17 µM
same,CC50,UACC-257; [1],57.5 µM
same,GI50,SR,2140 nM
same,IC50,SR,3.55 µM
same,CC50,SR; [2],≥ 100 µM
same,GI50,HOP-92,12.9 µM
same,IC50,HOP-92,32.4 µM
same,IC (TGI),HOP-92,29.5 µM
same,CC50,HOP-92; [1],66.1 µM
same,GI50,NCI-H522,1700 nM
same,IC50,NCI-H522,3.24 µM
same,IC (TGI),NCI-H522,3.55 µM
same,CC50,NCI-H522; [1],7.24 µM
same,growth inhibition in the One-Dose Screen,full NCI 60 cell panel,significant growth inhibition
same,GI50,NCI/ADR-RES,19.1 µM
same,IC50,NCI/ADR-RES,35.5 µM
same,IC (TGI),NCI/ADR-RES,46.8 µM
same,CC50,NCI/ADR-RES; [1],≥ 100 µM
same,GI50,HCT-116,3.16 µM
same,IC50,HCT-116,3.72 µM
same,IC (TGI),HCT-116,13.2 µM
same,CC50,HCT-116; [1],64.6 µM
same,GI50,HS 578T,14.1 µM
same,IC50,HS 578T,100 µM
same,IC (TGI),HS 578T,60.3 µM
same,CC50,HS 578T; [2],≥ 100 µM
same,GI50,COLO 205,18.6 µM
same,IC50,COLO 205,33.9 µM
same,IC (TGI),COLO 205,45.7 µM
same,CC50,COLO 205; [1],≥ 100 µM
same,GI50,ACHN,12.3 µM
same,IC50,ACHN,22.4 µM
same,IC (TGI),ACHN,100 µM
same,CC50,ACHN; [1],≥ 100 µM
same,GI50,SF-295,10.2 µM
same,IC50,SF-295,17.8 µM
same,IC (TGI),SF-295,25.7 µM
same,CC50,SF-295; [1],64.6 µM
same,GI50,OVCAR-8,3.24 µM
same,IC50,OVCAR-8,4.47 µM
same,IC (TGI),OVCAR-8,11.7 µM
same,CC50,OVCAR-8; [1],40.7 µM
same,GI50,MCF7,10 µM
same,IC50,MCF7,15.8 µM
same,IC (TGI),MCF7,42.7 µM
same,CC50,MCF7; [1],≥ 100 µM
